Experimental data published in patent US9481654B2, “Compositions and methods for inhibition of the JAK pathway” (Rigel Pharmaceuticals, Inc., priority 2006, dated 2016).
Where a name gives a salt, the structure may show the parent alone.

tested on: IL-4 stimulated CD23 upregulation in human Ramos B cells (JAK-1/JAK-3, Stat-6); assay: Assay for Ramos B-Cell Line Stimulated with IL-4 (CD23 upregulation, FACS); type: cell-based; settings: Table III Example 3
From the text: One means of assaying for such inhibition is detection of the effect of the 2,4-pyrimidinediamine compounds on the upregulation of downstream gene products. In the Ramos/IL4 assay, B-cells are stimulated with the cytokine Interleukin-4 (IL-4) leading to the activation of the JAK/Stat pathway through phosphorylation of the JAK family kinases, JAK1 and JAK3, which in turn phosphorylate and activate the transcription factor Stat-6. […] To study the effect of inhibitors (e.g., the 2,4-substituted pyrimindinediamine compounds described herein) on the JAK1 and JAK3 kinases, human Ramos B cells are stimulated with human IL-4. 20 to 24 hours post stimulation, cells are stained for upregulation of CD23 and analyzed using flow cytometry (FACS).
B-cells stimulated with cytokine Interleukin-4 (IL-4) activate the JAK/Stat pathway through phosphorylation of the JAK family kinases, JAK-1 and JAK-3, which in turn phosphorylate and activate the transcription factor Stat-6. […] To study the effect of inhibitors on the JAK family kinases, human Ramos B cells are stimulated with human IL-4.
Cells were maintained at a density of 3.5×10^5. The day before the experiment, Ramos B-cells were diluted to 3.5×10^5 cells/mL to ensure that they were in a logarithmic growth phase.
Cells were spun down and suspended in RPMI with 5% serum. 5×10^4 cells were used per point in a 96-well tissue culture plate. Cells were pre-incubated with compound or DMSO (Sigma-Aldrich, St. Louis, Mo., Cat No. D2650) vehicle control for 1 hour in a 37° C. incubator. Cells were then stimulated with IL-4 (Peprotech Inc., Rocky Hill, N.J., Cat No. 200-04) for a final concentration of 50 units/mL for 20-24 hours. […] Detection was performed using a BD LSR I System Flow Cytometer, purchased from Becton Dickinson Biosciences of San Jose, Calif.

Molecule	IC50 [µM]
Cc1cnc(Nc2cccc(S(=O)(=O)NC3(C(=O)O)CCCC3)c2)nc1Nc1cccc(CNS(=O)(=O)C2CC2)c1 [Compound I-145, N2-[3-N-(cycloleucine)aminosulfonyl]phenyl-N4-(3-cyclopropylsulfonylaminomethyl)phenyl-5-methyl-2,4-pyrimidinediamine hydrogen chloride salt]	8.54
CCCC(=O)NS(=O)(=O)c1cccc(Nc2ncc(C)c(Nc3cccc(CN(C(=O)CCC)S(=O)(=O)C4CC4)c3)n2)c1 [Compound I-203, N2-(3-butyrylaminosulfonyl)phenyl-N4-[3-(N-butyryl-N-cyclopropylsulfonyl)aminomethyl]phenyl-5-methyl-2,4-pyrimidinediamine]	3.02
Cc1cnc(Nc2cccc(S(=O)(=O)N[C@H](C(=O)O)C(C)C)c2)nc1Nc1cccc(CNS(=O)(=O)C2CC2)c1 [Compound I-138, N2-[3-N-(L-Val)aminosulfonyl]phenyl-N4-(3-cyclopropylsulfonylaminomethyl)phenyl-5-methyl-2,4-pyrimidinediamine]	2.38
CCCCC(=O)NS(=O)(=O)c1cccc(Nc2ncc(C)c(Nc3cccc(CN(C(=O)CCCC)S(=O)(=O)C4CC4)c3)n2)c1 [Compound I-220, N4-[3-(N-cyclopropylsulfonyl-N-valeryl)aminomethyl]phenyl-5-methyl-N2-(3-valerylaminosulfonyl)phenyl-2,4-pyrimidinediamine]	2.02
Cc1cnc(Nc2ccc(S(=O)(=O)NC(=O)C(C)C)cc2)nc1Nc1ccc(CN(C(=O)C(C)C)S(=O)(=O)C2CC2)cc1 [Compound I-199, N4-[4-(N-cyclopropylsulfonyl-N-isobutyryl)aminomethyl]phenyl-N2-(4-isobutyrylaminosulfonyl)phenyl-5-methyl-2,4-pyrimidinediamine]	1.27
Cc1cnc(Nc2cccc(S(=O)(=O)NC(=O)C(C)C)c2)nc1Nc1cccc(CN(C(=O)C(C)C)S(=O)(=O)C2CC2)c1 [Compound I-198, N4-[3-(N-cyclopropylsulfonyl-N-isobutyryl)aminomethyl]phenyl-N2-(3-isobutyrylaminosulfonyl)phenyl-5-methyl-2,4-pyrimidinediamine]	2.05
CCC(=O)NS(=O)(=O)c1cccc(Nc2ncc(F)c(Nc3ccc(CN(C(=O)CC)S(=O)(=O)C4CC4)cc3)n2)c1 [Compound I-58, N4-[4-(N-cyclopropylsulfonyl-N-propionyl)aminomethyl]phenyl-5-fluoro-N2-(3-propionylaminosulfonyl)phenyl-2,4-pyrimidinediamine]	11.1
Cc1cnc(Nc2cccc(S(=O)(=O)NC(=O)CNC(=O)OCc3ccccc3)c2)nc1Nc1cccc(CNS(=O)(=O)C2CC2)c1 [Compound I-142, N2-{3-N-[2-(benzoxycarbonylamino)-1-oxoethyl]aminosulfonyl}phenyl-N4-(3-cyclopropylsulfonylaminomethyl)phenyl-5-methyl-2,4-pyrimidinediamine]	5.62
CCOC(=O)N(CC)S(=O)(=O)c1cccc(Nc2ncc(C)c(Nc3cccc(CNS(=O)(=O)C4CC4)c3)n2)c1 [Compound I-130, N4-(3-cyclopropylsulfonylaminomethyl)phenyl-N2-[3-(N-ethoxycarbonyl-N-ethyl)aminosulfonyl]phenyl-5-methyl-2,4-pyrimidinediamine]	0.544
N4-[3-(N-cyclopropylsulfonyl-N-valeryl)aminomethyl]phenyl-5-methyl-N2-(3-valerylaminosulfonyl)phenyl-2,4-pyrimidinediamine sodium salt [Compound I-221]	1.88
CCC(=O)NS(=O)(=O)c1cccc(Nc2ncc(F)c(Nc3ccc(CNS(=O)(=O)C4CC4)cc3)n2)c1 [Compound I-57, N4-(4-cyclopropylsulfonylaminomethyl)phenyl-5-fluoro-N2-(3-propionylaminosulfonyl)phenyl-2,4-pyrimidinediamine]	12.3
CCC(=O)NS(=O)(=O)c1cccc(Nc2ncc(C)c(Nc3cccc(CN(C(=O)CC)S(=O)(=O)C4CC4)c3)n2)c1 [Compound I-226, N4-[3-(N-cyclopropylsulfonyl-N-propionyl)aminomethyl]phenyl-5-methyl-N2-(3-propionylaminosulfonyl)phenyl-2,4-pyrimidinediamine Choline salt]	5.49
CC(=O)NS(=O)(=O)c1cccc(Nc2ncc(C)c(Nc3cccc(CN(C(C)=O)S(=O)(=O)C4CC4)c3)n2)c1 [Compound I-193, N2-(3-acetamidosulfonyl)phenyl-N4-[3-(N-acetyl-N-cyclopropylsulfonyl)aminomethyl]phenyl-5-methyl-2,4-pyrimidinediamine]	1.89

same assay, conditions: Table III Example 3, sodium salt

Molecule	IC50 [µM]
CC(=O)NS(=O)(=O)c1ccc(Nc2ncc(C)c(Nc3ccc(CN(C(C)=O)S(=O)(=O)C4CC4)cc3)n2)cc1 [Compound I-197, N2-(4-acetamidosulfonyl)phenyl-N4-[4-(N-acetyl-N-cyclopropylsulfonyl)aminomethyl]phenyl-5-methyl-2,4-pyrimidinediamine sodium salt]	1.55
Cc1cnc(Nc2cccc(S(=O)(=O)NC(=O)CNC(=O)OCc3ccccc3)c2)nc1Nc1cccc(CNS(=O)(=O)C2CC2)c1 [Compound I-143, N2-{3-N-[2-(benzoxycarbonylamino)-1-oxoethyl]aminosulfonyl}phenyl-N4-(3-cyclopropylsulfonylaminomethyl)phenyl-5-methyl-2,4-pyrimidinediamine sodium salt]	7.29
Cc1cnc(Nc2ccc(S(=O)(=O)NC(=O)C(C)C)cc2)nc1Nc1ccc(CN(C(=O)C(C)C)S(=O)(=O)C2CC2)cc1 [Compound I-201, N4-[4-(N-cyclopropylsulfonyl-N-isobutyryl)aminomethyl]phenyl-N2-(4-isobutyrylaminosulfonyl)phenyl-5-methyl-2,4-pyrimidinediamine sodium salt]	1.21
CC(=O)NS(=O)(=O)c1cccc(Nc2ncc(C)c(Nc3cccc(CN(C(C)=O)S(=O)(=O)C4CC4)c3)n2)c1 [Compound I-196, N2-(3-acetamidosulfonyl)phenyl-N4-[3-(N-acetyl-N-cyclopropylsulfonyl)aminomethyl]phenyl-5-methyl-2,4-pyrimidinediamine sodium salt]	2.05
CCC(=O)NS(=O)(=O)c1ccc(Nc2ncc(C)c(Nc3ccc(CNS(=O)(=O)C4CC4)cc3)n2)cc1 [Compound I-88, N4-(4-cyclopropylsulfonylaminomethyl)phenyl-5-methyl-N2-(4-propionylaminosulfonyl)phenyl-2,4-pyrimidinediamine sodium salt]	0.0599
CCC(=O)NS(=O)(=O)c1cccc(Nc2ncc(C)c(Nc3cccc(CN(C(=O)CC)S(=O)(=O)C4CC4)c3)n2)c1 [Compound I-94, N4-[3-(N-cyclopropylsulfonyl-N-propionyl)aminomethyl]phenyl-5-methyl-N2-(3-propionylaminosulfonyl)phenyl-2,4-pyrimidinediamine sodium salt]	2.5
CCC(=O)NS(=O)(=O)c1ccc(Nc2ncc(C)c(Nc3ccc(CN(C(=O)CC)S(=O)(=O)CC)cc3)n2)cc1 [Compound I-92, N4-[4-(N-ethylsulfonyl-N-propionyl)aminomethyl]phenyl-5-methyl-N2-(4-propionylaminosulfonyl)phenyl-2,4-pyrimidinediamine sodium salt]	0.96
